Measured values from US20170073371A1, “ANTIMICROBIAL PEPTIDES” (ROBERT BOSCH GESELLSCHAFT FÜR MEDIZINISCHE FORSCHUNG MBH, priority 2012, published 2017).
Where no end group is shown, it is not given here.

Columns and labels:
[1] = system: Bifidobacterium adolescentis; experiment: Antimicrobial radial diffusion assay (inhibition zone diameter); format: cell-based; conditions: for antimicrobial activity (diameter of inhibition zone): FIG. 1, radial diffusion
Method: (§1) The letters indicate the amino acids using the single-letter code. […] The diameter of the inhibition zones represents the antimicrobial activity; a diameter of 2.5 mm is the diameter of an empty punched well in an agar plate which contains only carrier fluid (negative control). The experiments were repeated at least three times, and the mean plus standard deviation is shown.
(§2) Antimicrobial radial diffusion assays for anaerobic bacteria were carried out as described previously (see Schröder et al.: “Reduction of disulfide bonds unmasks potent antimicrobial activity of human beta-defensin 1”, Nature, 469: 419-423 (2011)). In brief, the bacteria were anaerobically cultured (Oxoid AnaeroGen”, England) for 24 hours at 37° C. on Columbia agar plates, then inoculated into liquid trypticase soy broth (TSB) medium and cultured again for 24 hours. The bacterial cultures were then washed and diluted to an optical density (OD620 nm)=0.1, of which 150 μl was used for the effectiveness assay. Incubation occurred under anaerobic conditions in 10 ml 10 mM sodium phosphate having a pH of 7.4 with 0.3 mg/ml TSB pwder and 1% (w/v) low-EEO agarose (agarose with very low EEO value)(Appli-Chem) with 0 or 2 mM dithiothreitol (DTT, Sigma Aldrich), with 1 μg synthetic, oxidized hBD-1 (Peptide Institute, Japan) or synthetic peptides, for three hours. An overcoating gel having 6% (w/v) TSB powder, 1% agarose, and 10 mM sodium phosphate buffer (pH 7.4 or 5.7), with or without DTT, was placed onto the plates. After incubation for 48 hours at 37° C. the diameters of the inhibition zones were measured. The experiments were repeated at least three times.

Escherichia coli [2] = experiment: as above; format: cell-based; conditions: FIG. 1b, 1c
Method: as §1, §2

E. coli K12 = experiment: Radial diffusion assay, D- versus L-amino acid octapeptide (FIG. 3a); format: cell-based, Escherichia coli
Method: Antimicrobial radial diffusion assays for anaerobic bacteria were carried out as described previously (see Schröder et al.: “Reduction of disulfide bonds unmasks potent antimicrobial activity of human beta-defensin 1”, Nature, 469: 419-423 (2011)). In brief, the bacteria were anaerobically cultured (Oxoid AnaeroGen”, England) for 24 hours at 37° C. on Columbia agar plates, then inoculated into liquid trypticase soy broth (TSB) medium and cultured again for 24 hours. The bacterial cultures were then washed and diluted to an optical density (OD620 nm)=0.1, of which 150 μl was used for the effectiveness assay. Incubation occurred under anaerobic conditions in 10 ml 10 mM sodium phosphate having a pH of 7.4 with 0.3 mg/ml TSB pwder and 1% (w/v) low-EEO agarose (agarose with very low EEO value)(Appli-Chem) with 0 or 2 mM dithiothreitol (DTT, Sigma Aldrich), with 1 μg synthetic, oxidized hBD-1 (Peptide Institute, Japan) or synthetic peptides, for three hours. An overcoating gel having 6% (w/v) TSB powder, 1% agarose, and 10 mM sodium phosphate buffer (pH 7.4 or 5.7), with or without DTT, was placed onto the plates. After incubation for 48 hours at 37° C. the diameters of the inhibition zones were measured. The experiments were repeated at least three times. […]

[3] = system: (opportunistic) pathogenic microorganisms; experiment: Flow cytometric antimicrobial assay (membrane depolarization), all tested pathogens; format: cell-based; conditions: 50 μg/ml; E. coli, S. aureus, C. albicans, B. fragilis; FIG. 2
Method: (§3) The following peptides were investigated: modified octapeptide (SEQ ID NO. 4), wild type octapeptide (SEQ ID NO. 1), alanine-mutated octapeptide (SEQ ID NO. 7), and a heptapeptide (SEQ ID NO. 8) (each 50 μg/ml) were tested in a flow cytometric antimicrobial effectiveness assay against Escherichia coli, Staphylococcus aureus, Candida albicans, and Bacteroides fragilis. The letters once again indicate the respective amino acids in the one-letter code. The experiments were repeated twice in double batches, and the mean plus standard deviation is shown;
(§4) Flow cytometric antimicrobial assays with which the membrane depolarization of the bacteria and fungi were measured were carried out as previously described (see Nuding et al., “A flow cytometric assay to monitor antimicrobial activity of defensins and cationic tissue extracts,” Journal of Microbiological Methods, 65: 335-380 (2006)).
(§5) In brief, 1.5×10^6 cells per ml were incubated in 1:6-diluted Schaedler medium at 37° C. with peptides at a final volume of 50 μl. The defensins were dissolved in 0.01% acetic acid and were added to the bacterial/fungal suspensions at the final concentrations indicated. Bacterial or fungal suspensions that had been incubated with solvent (0.01% acetic acid) served here as controls for viability. After 90 minutes the suspensions were incubated for 10 minutes with 1 mg/ml of the membrane-potential-sensitive dye DiBAC4(3) ([bis-(1,3-dibutylbarbiturate)trimethine oxanol]) (Invitrogen, USA). The suspensions were centrifuged, and sediments resuspended in […] phosphate-buffered saline. The percentage of depolarized fluorescing bacteria or fungi in the suspension was determined using a FACSCalibur flow cytometer (Becton-Dickinson, USA) utilizing Cell Quest software (Becton-Dickinson). The experiments were repeated twice, each in duplicate.

Bacteroides fragilis = experiment: Flow cytometric antimicrobial assay (membrane depolarization); format: cell-based; conditions: 50 μg/ml; FIG. 2
Method: as §3, §4, §5

Candida albicans = experiment: as above; format: cell-based; conditions: 50 μg/ml; FIG. 2
Method: as §3, §4, §5

Staphylococcus aureus = experiment: as above; format: cell-based; conditions: 50 μg/ml; FIG. 2
Method: as §3, §4, §5

Escherichia coli [4] = experiment: as above; format: cell-based; conditions: 50 μg/ml; FIG. 2
Method: as §3, §4, §5

[5] = Reversed-phase HPLC analysis of hydrophobicity; format: physicochemical; conditions: data not shown
Method: For analysis by high performance liquid chromatography (HPLC), the octapeptides were mixed with 0.1% (v/v) trifluoracetic acid (TFA) and analyzed with an Agilent 1200 system (Agilent) and a Synergi reversed phase (RP) column (250×4.6 mm, 4 μm, Phenomenex, Germany).
In further experiments a reversed-phase HPLC analysis was carried out in order to investigate the hydrophobicity of the tested peptides (data not shown).

[6] = Schröder et al., Nature 469:419-423 (2011); cited from earlier work
[7] = system: commensal bacteria of the human intestinal flora; experiment: Antimicrobial radial diffusion assay of human beta-defensins at pH 7.4 or 5.7, with or without DTT; format: cell-based
Method: as §2
In the present case hBD-1 and its antimicrobial activity have been further investigated. For this, the antimicrobial activity of the three human beta-defensins hBD-1, -2, and -3 with respect to commensal bacteria of the human intestinal flora were tested under standard conditions (pH 7.4) and slightly acidic conditions (pH 5.7); under both conditions, reducing conditions were also tested by adding 2 mM of the chemical reducing agent dithiothreitol (DTT) to the growth medium.

Row | Substance | antimicrobial activity (diameter of inhibition zone) [1] | antimicrobial activity (diameter of inhibition zone) (Escherichia coli [2]) | effectiveness (depolarized bacteria or fungi) [3] | also measured
1 | RGKAKACK [Cys6 exchanged, octapeptide with Cys6 exchanged for alanine] | activity was greatly decreased | increased the antimicrobial activity | – | –
2 | RGKAKCAK [Cys7 exchanged, octapeptide with Cys7 exchanged for alanine] | activity was greatly decreased | increased the antimicrobial activity | – | –
3 | RGKAKCCK (not fully specified (some residues); cysteine pairing not given here; also: termini modified in some versions, not given here) | – | – | – | activity compared with the peptide made up of L-amino acids (E. coli K12): weaker activity; activity compared with the peptide made up of L-amino acids ([1]; FIG. 3b): elevated activity
4 | RGKAKCCK [wild type octapeptide, octapeptide of the eight terminal amino acids of the carboxy terminus of hBD-1] | greater antimicrobial activity than the previously tested heptapeptide | also had antimicrobial activity | only marginal in most cases | –
5 | ac-RGKAKCCK-NH2 (Ac-RGKAKCCK-NH2; cysteine pairing not given here) [modified octapeptide] | rose sharply | did not differ significantly by comparison with the wild type peptide | – | activity (depolarized bacteria) (Bacteroides fragilis): but not with respect to Escherichia coli and Bacteroides fragilis; activity (depolarized fungi) (Candida albicans): outstanding activity; activity (depolarized bacteria) (Staphylococcus aureus): outstanding activity; activity (depolarized bacteria) (Escherichia coli [4]): but not with respect to Escherichia coli and Bacteroides fragilis; hydrophobicity (order of elution from RP column) [5]: highest hydrophobicity
6 | alanine-mutated octapeptide: alanine-mutated octapeptide; both cysteines exchanged (RGKAKAAK) [reference compound] | brought activity to a complete standstill | almost entirely shut down antimicrobial activity | only marginal in most cases | –
7 | hBD-1: human beta-defensin 1, obtained from Peptide Institute Inc. (DHYNCVSSGGQCLYSACPIFTKIQGTCYRGKAKCCK; disulfide (positions not given here); UniProt P60022 33-68, looked up) | – | – | – | antimicrobial activity under reducing conditions [6]: elevated antimicrobial activity; activation of antimicrobial activity by reduction ([7]; pH 5.7, 2 mM DTT, data not shown): activation was not observed; antimicrobial activity, effect of reduction ([7]; reducing conditions, 2 mM dithiothreitol (DTT) in growth medium, data not shown): became active by reduction; antimicrobial activity ([7]; standard conditions (pH 7.4), data not shown): largely inactive
8 | hBD-3: human beta-defensin, obtained from Peptide Institute Inc. (GIINTLQKYYCRVRGGRCAVLSCLPKEEQIGKCSTRGRKCCRRKK; ends and bridges not checked; cysteine pairing not given here; UniProt P81534 23-67, looked up) | – | – | – | antimicrobial activity compared with the other two defensins ([7]; in most cases, tested commensals): strongest activity
9 | wild type heptapeptide: heptapeptide that represents the seven terminal amino acids of hBD-1 (GKAKCCK) [reference compound] | highest activity | – | only marginal in most cases | –
